Data: ChEMBL document CHEMBL5113545, “Selective Cyclin-Dependent Kinase Inhibitors and Their Application in Cancer Therapy” (ACS Med Chem Lett, 2022)

Molecular target: Cyclin-dependent kinase 2/cyclin E1 (Homo sapiens, UniProt P24941)
Assay: Inhibition of human full length recombinant C-terminal 6His-tagged CDK2/N-terminal GST-tagged cyclin E1 expressed in baculovirus-infected Sf21 cells using 5-FAM- QSPKKG peptide as substrate preincubated with enzyme and ATP for 30 mins followed by substrate addition and measured after 20 hrs by fluorescence- based microfluidic mobility shift assay

| IC50 [nM] | Structure (SMILES) |
| --- | --- |
| ≤ 100 | Cc1ncc(CC(=O)Nc2cc([C@H]3CC[C@@H](OC(=O)NC(C)C)C3)[nH]n2)s1 |
| ≤ 100 | CC(C)NC(=O)O[C@@H]1CC[C@H](c2cc(NC(=O)Cc3ccccc3S(C)(=O)=O)n[nH]2)C1 |
| ≤ 100 | COCc1cc(C(=O)Nc2cc([C@H]3CC[C@@H](OC(=O)N(C)C(C)C)C3)[nH]n2)n(C)n1 |
| ≤ 100 | CC1(NC(=O)O[C@@H]2CC[C@H](c3cc(NC(=O)Cc4ccccc4)n[nH]3)C2)CC1 |
| ≤ 100 | COc1cc(CC(=O)Nc2cc([C@H]3CC[C@@H](OC(=O)NC(C)C)C3)[nH]n2)ccn1 |
| ≤ 100 | CC(C)NC(=O)O[C@@H]1CC[C@H](c2cc(NC(=O)c3ccnn3C)n[nH]2)C1 |
| ≤ 100 | CC(C)NC(=O)O[C@@H]1CC[C@H](c2cc(NC(=O)c3ccnc4ncsc34)n[nH]2)C1 |
| ≤ 100 | CC(C)NC(=O)O[C@@H]1CC[C@H](c2cc(NC(=O)Cc3ccccc3)n[nH]2)C1 |
| ≤ 100 | CC1(NC(=O)O[C@H]2CC[C@@H](c3cc(NC(=O)Cc4ccccc4)n[nH]3)C2)CC1 |
| ≤ 100 | Cc1cc(CC(=O)Nc2cc([C@H]3CC[C@@H](OC(=O)N4CCC4(C)C)C3)[nH]n2)on1 |
| ≤ 100 | CC(C)NC(=O)O[C@H]1CC[C@@H](c2cc(NC(=O)c3ccnn3C)n[nH]2)C1 |
| ≤ 100 | Cc1cc(CC(=O)Nc2cc([C@H]3CCC[C@@H](OC(=O)NC4(C)CC4)CC3)[nH]n2)on1 |
